In publication PMC5877965 (Proceedings of the National Academy of Sciences of the …, 2018):

Key:
[1] = molecular target: human M2 mAChR (Homo sapiens, UniProt P08172); format: binding
[2] = molecular target: all five receptor subtypes; details: cited from earlier work

human M2 mAChR, sequence (P08172 whole entry): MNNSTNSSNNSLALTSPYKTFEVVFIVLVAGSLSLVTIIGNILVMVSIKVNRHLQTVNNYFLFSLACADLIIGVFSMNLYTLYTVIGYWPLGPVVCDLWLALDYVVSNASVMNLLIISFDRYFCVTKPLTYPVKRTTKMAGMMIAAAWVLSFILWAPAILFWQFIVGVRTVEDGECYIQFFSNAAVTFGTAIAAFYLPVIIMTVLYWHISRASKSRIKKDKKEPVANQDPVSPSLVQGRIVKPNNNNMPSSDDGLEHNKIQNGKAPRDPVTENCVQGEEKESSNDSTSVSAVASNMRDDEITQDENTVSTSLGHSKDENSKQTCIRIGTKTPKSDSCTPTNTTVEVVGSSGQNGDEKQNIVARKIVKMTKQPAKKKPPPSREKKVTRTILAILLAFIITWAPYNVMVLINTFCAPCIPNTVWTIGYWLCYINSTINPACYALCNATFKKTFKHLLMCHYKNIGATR

Row | SMILES | allosteric effect on [3H]NMS binding (in words) [1] | Kd [2] [nM]
1 | CC[N+](CC)(CC)CCOc1cccc(OCC[N+](CC)(CC)CC)c1OCC[N+](CC)(CC)CC [Gallamine, gallamine] | substantially reduced the specific binding | –
2 | COc1nc2sc(C(=O)NC3CC3)c(N)c2c(C)c1Cl [LY2033298] | small NAM effect | –
3 | CN1[C@@H]2C[C@@H](OC(=O)[C@H](CO)c3ccccc3)C[C@H]1[C@@H]1O[C@@H]12 [scopolamine] | – | 0.4 to 2.1
